Test systems include A498 renal; A549 NSCLC; HCC-2998 colon; HOP-92 NSCLC; OVCAR-3 ovarian; OVCAR-4 ovarian; SW-620 colon; T-47D breast; U251 CNS; UO-31 renal.
Holding throughout (assay): growth of human tumour cells (NCI), 48 h

Several values for one entry are separate records, joined by “and”; a condition that tells them apart may be missing. Equal values may be shown once.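 Interpolation was linear, between the two tested concentrations surrounding the appropriate level; five concentrations were tested over 48 hours in 96-well plates. GI50 marks 50% less growth. The concentration for full growth arrest is given as TGI.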

On to `COC(C)(C)[C@@H](O)[C@H](O)C[C@H](C)C1=C2CC[C@@H]3[C@@]4(C)CC[C@@H](OC(C)=O)C(C)(C)[C@@H]4C[C@@H](OC4OC(COC(C)=O)C(O)C(O)C4O)[C@@]3(C)[C@]2(C)CC1` (some centres not stated), for which the GI50 in the assay with A498 renal was 14.2 µM; in the assay with A549 NSCLC it was 7.77 µM; in the assay on HCC-2998 colon, 4 µM; in the assay on HOP-92 NSCLC, 13 µM; in the assay with OVCAR-3 ovarian, 7.37 µM; in the assay on OVCAR-4 ovarian it was 10.8 µM. Besides, the GI50 with SW-620 colon was 15.7 µM; in the assay with T-47D breast, 12.6 µM; with UO-31 renal it was 13.6 µM. For the same compound, the TGI in the assay on A498 renal came out at 27.6 µM; with A549 NSCLC it was 20.3 µM; in the assay with HCC-2998 colon it was 13.4 µM; in the assay with HOP-92 NSCLC, 25.8 µM; in the assay on OVCAR-3 ovarian, 21.1 µM; with OVCAR-4 ovarian it was 23.1 µM. In addition, the TGI in the assay with SW-620 colon was 30.1 µM; with T-47D breast it was 25.6 µM; with U251 CNS, 22.5 µM; in the assay with UO-31 renal, 26.9 µM.

Turning to `C#C[C@]1(O)CC[C@H]2[C@@H]3CC=C4c5sc(Nc6cc(F)ccc6F)nc5CC[C@]4(C)[C@H]3CC[C@@]21C`, the GI50 in the assay on A498 renal was 1.37 µM; in the assay with A549 NSCLC, 2.51 µM; in the assay on HCC-2998 colon it was 1.65 µM; in the assay on HOP-92 NSCLC it was 2.06 µM; in the assay with OVCAR-3 ovarian, 1.62 µM; in the assay on OVCAR-4 ovarian, 3.25 µM. Further, the GI50 in the assay on SW-620 colon is 1.78 µM; with T-47D breast, 2.49 µM; in the assay with U251 CNS, 0.813 µM; with UO-31 renal, 1.14 µM. Besides, the TGI amounted to 2.76 µM in the assay on A498 renal; 7.86 µM in the assay on A549 NSCLC; 3.19 µM with HCC-2998 colon; 5.49 µM in the assay with HOP-92 NSCLC; 3.16 µM in the assay on OVCAR-3 ovarian; 11.4 µM in the assay with OVCAR-4 ovarian. The TGI was 4.38 µM with SW-620 colon, 7.69 µM in the assay with T-47D breast, 2.43 µM in the assay with U251 CNS and 2.35 µM with UO-31 renal.

Regarding `COc1ccc2c(c1)nc(NNC(=O)c1cnccn1)c1cccn12`, the GI50 in the assay with A498 renal was 1.31 µM; in the assay with A549 NSCLC, 0.298 µM; with HCC-2998 colon, 1.05 µM; in the assay with HOP-92 NSCLC it was 0.952 µM; with OVCAR-3 ovarian, 0.186 µM; with OVCAR-4 ovarian it was 0.114 µM. In addition, the GI50 with SW-620 colon is 0.403 µM; with T-47D breast, 0.348 µM; in the assay on U251 CNS it was 0.132 µM; with UO-31 renal it was 0.0848 µM. For the same compound, the TGI in the assay with A498 renal stood at 2.93 µM; in the assay with A549 NSCLC it was 3.45 µM; in the assay on HCC-2998 colon, 2.43 µM; in the assay with HOP-92 NSCLC, 3.22 µM; in the assay with OVCAR-3 ovarian, 3.82 µM; in the assay with OVCAR-4 ovarian, 2.3 µM. Further, the TGI is 9.43 µM in the assay on SW-620 colon, 3.99 µM in the assay with T-47D breast, 2.86 µM with U251 CNS and 1.51 µM in the assay with UO-31 renal.

`O=[N+]([O-])c1cc[n+]([O-])c2ccccc12`: the GI50 in the assay with A498 renal is 0.176 µM; with A549 NSCLC, 0.149 µM; in the assay on HCC-2998 colon, 0.347 µM; with HOP-92 NSCLC it was 0.13 µM; in the assay on OVCAR-3 ovarian, 0.197 µM; in the assay with OVCAR-4 ovarian, 1.78 µM. The GI50 with SW-620 colon was 0.106 µM; with T-47D breast, 0.321 µM; in the assay on U251 CNS, 0.298 µM; in the assay with UO-31 renal it was 0.191 µM. For the same compound, the TGI in the assay on A498 renal was 0.471 µM; with A549 NSCLC it was 0.584 µM; in the assay on HCC-2998 colon, 0.8 µM; in the assay on HOP-92 NSCLC, 0.758 µM; with OVCAR-3 ovarian, 0.471 µM; in the assay on OVCAR-4 ovarian, 3.17 µM. Besides, the TGI worked out at 0.56 µM with SW-620 colon, 4.25 µM with T-47D breast, 1.3 µM with U251 CNS and 0.604 µM in the assay with UO-31 renal.

On to `O=C(O)C[C@H](O)C[C@H](O)/C=C/c1c(C2CC2)nc2ccccc2c1-c1ccc(F)cc1`, for which the GI50 in the assay with A498 renal is 0.202 µM and 0.036 µM; in the assay on A549 NSCLC, > 100 µM and 18.7 µM; in the assay with HCC-2998 colon, 42 µM and 49.9 µM; with OVCAR-3 ovarian, 16.8 µM and 12.1 µM; in the assay with OVCAR-4 ovarian it was 22.8 µM and 8.04 µM; with SW-620 colon it was 18.6 µM and 4.92 µM. Besides, the GI50 is 1.62 µM and 0.302 µM in the assay on U251 CNS; 16 µM and 3.48 µM with UO-31 renal. For the same compound, the TGI with A498 renal is 0.908 µM and 0.226 µM; in the assay on A549 NSCLC, > 100 µM; in the assay on HCC-2998 colon it was > 100 µM; in the assay with HOP-92 NSCLC, 0.227 µM and 0.0622 µM; in the assay with OVCAR-3 ovarian it was > 100 µM; with OVCAR-4 ovarian it was > 100 µM. Also, the TGI in the assay on SW-620 colon, in the assay on T-47D breast, with U251 CNS and in the assay on UO-31 renal was > 100 µM each time.

In the case of `N#Cc1nc(-c2ccc(F)cc2)oc1S(=O)(=O)N1CCCCC1`, the GI50 in the assay with A498 renal is 14.1 µM; with A549 NSCLC, 6.9 µM; in the assay with HCC-2998 colon, 1.8 µM; in the assay on HOP-92 NSCLC, 1.76 µM; in the assay on OVCAR-3 ovarian, 1.86 µM; with OVCAR-4 ovarian, 2.19 µM. Moreover, the GI50 is 1.89 µM in the assay on SW-620 colon, 2.13 µM in the assay with T-47D breast, 2.22 µM in the assay with U251 CNS and 1.58 µM with UO-31 renal. Further, the TGI with A498 renal was 27.4 µM; in the assay with A549 NSCLC it was 27.1 µM; in the assay with HCC-2998 colon, 3.46 µM; with HOP-92 NSCLC, 3.37 µM; in the assay with OVCAR-3 ovarian it was 3.48 µM; in the assay with OVCAR-4 ovarian it was 4.76 µM. Moreover, the TGI worked out at 4.11 µM in the assay with SW-620 colon, 5.44 µM in the assay with T-47D breast, 5.31 µM in the assay on U251 CNS and 2.93 µM in the assay with UO-31 renal.

For `C=CC(=O)N1CCC(c2ccc(C(N)=O)c(-c3ccc(Oc4ccccc4)cc3)n2)CC1`, the GI50 with A498 renal is 12.8 µM; in the assay with A549 NSCLC it was 28.9 µM; in the assay with HCC-2998 colon, 58.1 µM; with HOP-92 NSCLC it was 10.4 µM; with OVCAR-3 ovarian, 36 µM; with OVCAR-4 ovarian it was 21.6 µM. Also, the GI50 in the assay on SW-620 colon is 41.2 µM; in the assay on T-47D breast, 16.1 µM; in the assay on U251 CNS, 32.4 µM; in the assay with UO-31 renal, 12.9 µM. In addition, the TGI is 50.1 µM with A498 renal; > 100 µM in the assay with A549 NSCLC; > 100 µM with HCC-2998 colon; 76.6 µM in the assay on HOP-92 NSCLC; > 100 µM in the assay on OVCAR-3 ovarian; > 100 µM with OVCAR-4 ovarian. Moreover, the TGI with SW-620 colon was > 100 µM; with T-47D breast, 95.7 µM; in the assay with U251 CNS, > 100 µM; in the assay on UO-31 renal it was > 100 µM.

Source of the values: PubChem BioAssay (NCI).
